Like-named read-outs stand apart in the source and are kept apart here.
How the values were obtained:
hPDE4D = hPDE4D (Homo sapiens, UniProt Q08499); assay: In-vitro real-time enzyme-coupled spectrophotometric assay for PDE4 enzymes (hPDE4D)
hPDE4B = hPDE4B (Homo sapiens, UniProt Q07343); assay: In-vitro real-time enzyme-coupled spectrophotometric assay for PDE4 enzymes (hPDE4B)
[1] = read-out: hPDE4B activity, enzyme-coupled NADH assay, absorbance at 340 nm

Sequence of hPDE4B (Q07343 whole entry): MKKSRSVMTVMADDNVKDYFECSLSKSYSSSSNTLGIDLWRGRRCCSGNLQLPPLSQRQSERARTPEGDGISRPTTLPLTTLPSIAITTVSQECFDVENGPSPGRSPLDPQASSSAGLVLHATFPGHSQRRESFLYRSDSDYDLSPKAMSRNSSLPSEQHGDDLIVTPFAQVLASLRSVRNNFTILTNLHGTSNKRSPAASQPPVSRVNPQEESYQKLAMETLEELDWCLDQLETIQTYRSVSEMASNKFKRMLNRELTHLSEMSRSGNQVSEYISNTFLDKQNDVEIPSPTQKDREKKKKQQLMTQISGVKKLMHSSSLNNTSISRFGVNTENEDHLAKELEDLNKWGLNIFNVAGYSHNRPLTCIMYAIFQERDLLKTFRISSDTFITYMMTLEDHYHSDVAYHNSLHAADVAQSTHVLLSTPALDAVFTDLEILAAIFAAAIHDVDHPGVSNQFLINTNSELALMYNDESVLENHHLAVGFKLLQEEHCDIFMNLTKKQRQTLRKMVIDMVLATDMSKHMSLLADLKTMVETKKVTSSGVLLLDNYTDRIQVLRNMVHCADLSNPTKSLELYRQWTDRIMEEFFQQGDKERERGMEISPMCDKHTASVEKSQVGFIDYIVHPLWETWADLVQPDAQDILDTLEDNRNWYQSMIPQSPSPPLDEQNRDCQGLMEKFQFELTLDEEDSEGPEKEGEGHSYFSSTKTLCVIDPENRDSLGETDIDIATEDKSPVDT
Sequence of hPDE4D (Q08499 whole entry): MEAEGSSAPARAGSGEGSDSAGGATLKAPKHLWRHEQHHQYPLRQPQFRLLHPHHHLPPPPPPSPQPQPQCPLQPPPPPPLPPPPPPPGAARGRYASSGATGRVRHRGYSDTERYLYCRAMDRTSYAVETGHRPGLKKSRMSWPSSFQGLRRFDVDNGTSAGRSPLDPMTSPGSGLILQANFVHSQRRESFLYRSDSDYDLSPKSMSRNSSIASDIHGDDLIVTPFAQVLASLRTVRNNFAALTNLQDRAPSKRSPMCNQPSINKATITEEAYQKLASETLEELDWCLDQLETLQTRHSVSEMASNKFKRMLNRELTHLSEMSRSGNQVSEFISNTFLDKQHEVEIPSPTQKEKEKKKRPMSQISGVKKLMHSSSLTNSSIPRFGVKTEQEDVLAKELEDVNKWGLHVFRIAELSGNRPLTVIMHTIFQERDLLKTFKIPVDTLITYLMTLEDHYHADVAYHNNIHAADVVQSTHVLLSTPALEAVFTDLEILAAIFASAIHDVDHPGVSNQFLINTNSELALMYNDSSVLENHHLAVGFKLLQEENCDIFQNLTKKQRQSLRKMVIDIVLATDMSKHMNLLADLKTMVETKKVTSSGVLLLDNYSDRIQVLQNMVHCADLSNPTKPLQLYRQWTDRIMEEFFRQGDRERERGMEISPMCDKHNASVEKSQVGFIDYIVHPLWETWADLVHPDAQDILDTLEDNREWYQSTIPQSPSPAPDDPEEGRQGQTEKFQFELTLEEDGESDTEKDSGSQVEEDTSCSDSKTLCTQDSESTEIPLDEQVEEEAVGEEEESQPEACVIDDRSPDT

IC50 (hPDE4D) [µM]	IC50 (hPDE4B) [µM]	Compound	IC50 (hPDE4D; read-out: hPDE4D activity, enzyme-coupled NADH assay, absorbance at 340 nm) [µM]	IC50 (hPDE4B; [1]) [µM]
–	–	1-[5-(3′-Chloro-2-fluoro-6-methoxy-biphenyl-3-ylmethyl)-pyrimitlin-2-yl]-piperidine-2-carboxylic acid [Example A-041]	< 5	5 to 20
< 5	5 to 20	COc1ccc(Cn2cnc3c(Cl)nc(N)nc32)cc1-c1cccc([N+](=O)[O-])c1 [Example A-003, 6-Chloro-9-(6-methoxy-3′-nitro-biphenyl-3-ylmethyl)-9H-purin-2-ylamine]	–	–
5 to 20	20 to 40	COc1ccc(Cn2cnc3c(=O)[nH]c(N)nc32)cc1-c1cccc([N+](=O)[O-])c1 [Example A-004, 2-Amino-9-(6-methoxy-3′-nitro-biphenyl-3-ylmethyl)-1,9-dihydro-purin-6-one]	–	–
< 5	5 to 20	COc1ccc(Cc2c(C)nn(CC(=O)O)c2C)cc1-c1cccc([N+](=O)[O-])c1 [Example A-006, [4-(6-Methoxy-3′-nitro-biphenyl-3-ylmethyl)-3,5-dimethyl-pyrazol-1-yl]-acetic acid]	–	–
5 to 20	5 to 20	COc1ccc(Cn2ccc(C(=O)O)cc2=O)cc1-c1cccc([N+](=O)[O-])c1 [Example A-007, 1-(6-Methoxy-3′-nitro-biphenyl-3-ylmethyl)-2-oxo-1,2-dihydro-pyridine-4-carboxylic acid]	–	–
< 5	< 5	COc1ccc(Cc2ccc(NS(N)(=O)=O)cc2)c(F)c1-c1cccc(Cl)c1 [Example A-008]	–	–
< 5	< 5	COc1ccc(Cc2ccc(NS(N)(=O)=O)nc2)c(F)c1-c1cccc(Cl)c1 [Example A-010]	–	–
< 5	5 to 20	COc1ccc(Cc2ccc(NS(N)(=O)=O)c(O)c2)c(F)c1-c1cccc(Cl)c1 [Example A-011]	–	–
< 5	< 5	COc1ccc(Cc2cnc(NS(N)(=O)=O)nc2)c(F)c1-c1cccc(Cl)c1 [Example A-012]	–	–
< 5	5 to 20	COc1ccc(Cc2ccc(NC(N)=O)[n+]([O-])c2)c(F)c1-c1cccc(Cl)c1 [Example A-014]	–	–
< 5	< 5	COc1ccc(Cc2cnc(NC(N)=O)[n+]([O-])c2)c(F)c1-c1cccc(Cl)c1 [Example A-015]	–	–
< 5	< 5	COc1ccc(Cc2ccc(NS(N)(=O)=O)cc2)c(F)c1-c1cccc(C(C)=O)c1 [Example A-016]	–	–
< 5	< 5	COc1ccc(Cc2cnc(NS(N)(=O)=O)nc2)c(F)c1-c1cccc(C(C)=O)c1 [Example A-017]	–	–
< 5	20 to 40	COC(=O)c1ccc(Cc2ccc(OC)c(-c3cccc(C(C)=O)c3)c2F)cc1 [Example A-018, 4-(3′-Acetyl-2-fluoro-6-methoxy-biphenyl-3-ylmethyl)-benzoic acid methyl ester]	–	–
< 5	5 to 20	COc1ccc(Cc2ccc(C(=O)O)cc2)c(F)c1-c1cccc(C(C)=O)c1 [Example A-019, 4-(3′-Acetyl-2-fluoro-6-methoxy-biphenyl-3-ylmethyl)-benzoic acid]	–	–
< 5	< 5	COC(=O)c1ccc(Cc2ccc(OC)c(-c3cccc(C(C)=O)c3)c2F)cn1 [Example A-020, 5-(3′-Acetyl-2-fluoro-6-methoxy-biphenyl-3-ylmethyl)-pyridine-2-carboxylic acid methyl ester]	–	–
5 to 20	5 to 20	COc1ccc(Cc2ccc(C(=O)O)nc2)c(F)c1-c1cccc(C(C)=O)c1 [Example A-021, 5-(3′-Acetyl-2-fluoro-6-methoxy-biphenyl-3-ylmethyl)-pyridine-2-carboxylic acid]	–	–
< 5	20 to 40	COc1ccc(Cc2nnc(NC(=O)NCCC(=O)O)s2)c(F)c1-c1cccc(Cl)c1 [Example A-027, 3-{3-[5-(3′-Chloro-2-fluoro-6-methoxy-biphenyl-3-ylmethyl)-[1,3,4]thiadiazol-2-yl]-ureido}-propionic acid]	–	–
< 5	< 5	COc1ccc(Cc2ccc(NC(=O)NCC(=O)O)nc2)c(F)c1-c1cccc(Cl)c1 [Example A-028]	–	–
< 5	5 to 20	CCOC(=O)CCCNC(=O)Nc1nnc(Cc2ccc(OC)c(-c3cccc(Cl)c3)c2F)s1 [Example A-030, 4-{3-[5-(3′-Chloro-2-fluoro-6-methoxy-biphenl-3-ylmethyl)-[1,3,4]thiadiazol-2-yl]-ureido}-butyric acid ethyl ester]	–	–

IC50 (hPDE4D) [µM]	IC50 (hPDE4B) [µM]	Compound	IC50 (hPDE4D; read-out: hPDE4D activity, enzyme-coupled NADH assay, absorbance at 340 nm) [µM]	IC50 (hPDE4B; [1]) [µM]
< 5	5 to 20	COc1ccc(Cc2nnc(NC(=O)NCCCC(=O)O)s2)c(F)c1-c1cccc(Cl)c1 [Example A-031, 4-{3-[5-(3′-Chloro-2-fluoro-6-methoxy-biphenyl-3-ylmethyl)-[1,3,4]thiadiazol-2-yl]-ureido}-butyric acid]	–	–
< 5	5 to 20	COc1ccc(Cc2ccc(NC(=O)NCCC(=O)O)nc2)c(F)c1-c1cccc(Cl)c1 [Example A-032]	–	–
< 5	20 to 40	COc1ccc(Cc2ccc(C(=O)N3CCC(C(=O)O)CC3)nc2)c(F)c1-c1cccc(Cl)c1 [Example A-034, 1-[5-(3′-Chloro-2-fluoro-6-methoxy-biphenyl-3-ylmethyl)-pyridine-2-carbonyl]-piperidine-4-carboxylic acid]	–	–
< 5	< 5	COc1ccc(Cc2ccc(NCC(=O)O)nc2)c(F)c1-c1cccc(Cl)c1 [Example A-035, [5-(3′-chloro-2-fluoro-6-methoxy-biphenyl-3-ylmethyl)-pyridin-2-ylamino]-acetic acid]	–	–
< 5	< 5	COc1ccc(Cc2ccc(O)nc2)c(F)c1-c1cccc(Cl)c1 [Example A-036]	–	–
< 5	< 5	COc1ccc(Cc2ccc(N(CC(=O)O)C(C)=O)nc2)c(F)c1-c1cccc(Cl)c1 [Example A-037, {acetyl-[5-(3′-chloro-2-fluoro-6-methoxy-biphenyl-3-ylmethyl)-pyridin-2-yl]-amino}-acetic acid]	–	–
< 5	< 5	COc1ccc(Cc2ccc(C(=O)N3CCC(C(=O)O)C3)nc2)c(F)c1-c1cccc(Cl)c1 (stereo not drawn) [Example A-038, 1-[5-(3′-Chloro-2-fluoro-6-methoxy-biphenyl-3-ylmethyl)-pyridine-2-carbonyl]-pyrrolidine-3-carboxylic acid]	–	–
< 5	< 5	COc1ccc(Cc2cnc(N3CCCC3C(=O)O)nc2)c(F)c1-c1cccc(Cl)c1 (stereo not drawn) [Example A-040, 1-[5-(3′-Chloro-2-fluoro-6-methoxy-biphenyl-3-ylmethyl)-pyrimidin-2-yl]-pyrrolidine-2-carboxylic acid]	–	–
< 5	< 5	COc1ccc(Cc2ccc(-c3nnn[nH]3)nc2)c(F)c1-c1cccc(Cl)c1 [Example A-042, 5-(3′-Chloro-2-fluoro-6-methoxy-biphenyl-3-ylmethyl)-2-(1H-tetrazol-5-yl)-pyridine]	–	–
< 5	5 to 20	COc1ccc(Cc2ccc3nc(C(=O)O)cn3c2)c(F)c1-c1cccc(Cl)c1 [Example A-043, 6-(3′-Chloro-2-fluoro-6-methoxy-biphenyl-3-ylmethyl)-imidazo[1,2-a]pyridine-2-carboxylic acid]	–	–
< 5	20 to 40	COc1ccc(Cc2cnc(N3CCC(C(=O)O)C3)nc2)c(F)c1-c1cccc(Cl)c1 (stereo not drawn) [Example A-044, 1-[5-(3′-Chloro-2-fluoro-6-methoxy-biphenyl-3-ylmethyl)-pyrimidin-2-yl]-pyrrolidine-3-carboxylic acid]	–	–
< 5	< 5	COc1ccc(Cc2cnc(N(C)CC(=O)O)nc2)c(F)c1-c1cccc(Cl)c1 [Example A-047, {[5-(3′-Chloro-2-fluoro-6-methoxy-biphenyl-3-ylmethyl)-pyrimidin-2-yl]-methyl-amino}-acetic acid]	–	–
< 5	< 5	CCOC(=O)C(=O)NCc1ccc(Cc2ccc(OC)c(-c3cccc(Cl)c3)c2F)cn1 [Example A-048, N-[5-(3′-Chloro-2-fluoro-6-methoxy-biphenyl-3-ylmethyl)-pyridin-2-ylmethyl]-oxalamic acid ethyl ester]	–	–
< 5	< 5	COc1ccc(Cc2cnc(N3CCC3C(=O)O)nc2)c(F)c1-c1cccc(Cl)c1 (stereo not drawn) [Example A-049, 1-[5-(3′-Chloro-2-fluoro-6-methoxy-biphenyl-3-ylmethyl)-pyrimidin-2-yl]-azetidine-2-carboxylic acid]	–	–
< 5	< 5	COc1ccc(Cc2ccc(C(=O)NS(C)(=O)=O)nc2)c(F)c1-c1cccc(Cl)c1 [Example A-050, N-[5-(3′-Chloro-2-fluoro-6-methoxy-biphenyl-3-ylmethyl)-pyridine-2-carbonyl]-methanesulfonamide]	–	–
–	–	COc1ccc(Cc2ccc(N3CCC3C(=O)O)nc2)c(F)c1-c1cccc(Cl)c1 (stereo not drawn) [Example A-055, 1-[5-(3′-chloro-2-fluoro-6-methoxy-biphenyl-3-ylmethyl)-pyridin-2-yl]-azetidine-2-carboxylic acid]	–	< 5
< 5	–	COc1ccc(Cc2ccc(N(C)CC(=O)O)nc2)cc1-c1cccc(Cl)c1 [Example A-077, {[5-(3′-chloro-6-methoxy-biphenyl-3-ylmethyl)-pyridin-2-yl]-methyl-amino}-acetic acid]	–	–
< 5	–	CN(CC(=O)O)c1ccc(Cc2ccc(OC(F)F)c(-c3cccc(Cl)c3)c2)cn1 [Example A-078, {[5-(3′-Chloro-6-difluoromethoxy-biphenyl-3-ylmethyl)-pyridin-2-yl]-methyl-amino}-acetic acid]	–	–
< 5	–	C[C@H](C(=O)O)N(C)c1ccc(Cc2ccc(OC(F)F)c(-c3cccc(Cl)c3)c2)cn1 [Example A-079, (R)-2-{[5-(3′-Chloro-6-difluoromethoxy-biphenyl-3-ylmethyl)-pyridin-2-yl]-methyl-amino}-propionic acid]	–	–
5 to 20	–	COc1ccc(Cc2ccc(F)cc2)cc1-c1ccc[n+]([O-])c1 [Example B-084, 3-[5-(4-Fluoro-benzyl)-2methoxy-phenyl]-pyridine 1-oxide]	–	–
